Test results published in PMC5444710, “Enhancement of radiosensitivity by the novel anticancer quinolone derivative vosaroxin in preclinical glioblastoma models” (Oncotarget, 2017).

How the values were obtained:
[1] = system: U87MG, U251, and T98G cells; experiment: Autophagy: acidic vesicular organelle (AVO) staining; assay type: cell-based, human; conditions: vosaroxin at IC20 for each cell line added to RT 4 Gy; 24 hours
Excerpt: As a marker of autophagy we evaluated the presence of AVOs after staining of cell cultures with LysoTracker® Red DND-99 kit (Life Technologies Italia, Monza, Italy) according to the manufacturer’s instructions. The intensity of the red fluorescence is proportional to the degree of acidity. The percentage of autophagic cells was quantified with the Tali® Image-Based Cytometer (Life Technologies) measuring fluorescence emission at 590 nm with fluorescence excitation at 577 nm. The results were expressed as the percentage of cell AVOs stained in controls and in treated cultures.

caspase-3 = experiment: Caspase-3 activity (ELISA); assay type: cell-based, human; conditions: addition of vosaroxin (IC20) to RT
Description: After appropriate treatments, tumor cell cultures and tissues were harvested for analysis of cytokine expression. Cell pellets were washed with PBS and lysed with RIPA buffer. Cell lysates and conditioned media were assayed by ELISA to measure (i) active human caspase-3 (CBA045, Merck Chemicals Ltd., Nottingham, UK), (ii) beclin-1 (E98557Hu, USCN Life Sciences, Houston, TX, USA), and (iii) DNA damage (EpiQuik in situ DNA Damage Assay Kit, Epigentek, Farmingdale, NY, USA).

U373 glioma cell line = experiment: Inhibition of proliferation (cell viability); assay type: cell-based; conditions: Homo sapiens, U373 MG
Description: (§1) Cells were seeded at a density of 2 × 10^4 cells/mL in 24-well plates. Cells were […] to attach and grow in 5% fetal bovine serum in DMEM for 24 hours. Cells were treated with different doses of radiation or temozolomide and then maintained in the appropriate culture conditions. At the conclusion of the treatment period, cells were trypsinized and resuspended in 1.0 mL of saline; viable cells were counted using the NucleoCounter^TM NC-100 (Chemotec, […], Denmark). All experiments were conducted in triplicate. IC50 values were calculated using GraFit (Erithacus Software Limited, Staines, UK).

U138 glioma cell line = experiment: Inhibition of proliferation (cell viability); assay type: cell-based; conditions: Homo sapiens
Description: as §1

LN229 glioma cell line = experiment: Inhibition of proliferation (cell viability); assay type: cell-based; conditions: Homo sapiens, LN-229
Description: as §1

D54 glioma cell line = experiment: Inhibition of proliferation (cell viability); assay type: cell-based; conditions: Homo sapiens
Description: as §1

LN18 glioma cell line = experiment: Inhibition of proliferation (cell viability); assay type: cell-based; conditions: Homo sapiens, LN-18
Description: as §1

SNB19 glioma cell line = experiment: Inhibition of proliferation (cell viability); assay type: cell-based; conditions: Homo sapiens, SNB-19
Description: as §1

SF268 glioma cell line = experiment: Inhibition of proliferation (cell viability); assay type: cell-based; conditions: Homo sapiens, SF-268
Description: as §1

U87MG glioma cell line = experiment: Inhibition of proliferation (cell viability); assay type: cell-based; conditions: Homo sapiens, U-87 MG
Description: as §1

T98G glioma cell line = experiment: Inhibition of proliferation (cell viability); assay type: cell-based; conditions: Homo sapiens
Description: as §1

U251 glioma cell line = experiment: Inhibition of proliferation (cell viability); assay type: cell-based; conditions: Homo sapiens, U-251
Description: as §1

A172 glioma cell line = experiment: Inhibition of proliferation (cell viability); assay type: cell-based; conditions: Homo sapiens, A 172
Description: as §1

U118 glioma cell line = experiment: Inhibition of proliferation (cell viability); assay type: cell-based; conditions: Homo sapiens
Description: as §1

SW1783 glioma cell line = experiment: Inhibition of proliferation (cell viability); assay type: cell-based; conditions: Homo sapiens
Description: as §1

T98G xenografts = experiment: Subcutaneous xenograft model: tumor weight and time to progression; assay type: in vivo, female CD1-nu/nu mice; conditions: for HR (95% CI) for tumor progression: T98G
Description: Female CD1-nu/nu mice, at 6 weeks of age, were purchased from Charles River (Milan, Italy) under the guidelines established by our institution (University of L’Aquila, Medical School and Science and Technology School Board Regulations, complying with Italian government regulation n.116, January 27, 1992, for the use of laboratory animals). All mice received subcutaneous flank injections (2 each) of 1 × 10^6 U251, U87MG, and T98G cells representing models for MGMT-negative and MGMT-positive cells. Tumor growth was assessed biweekly by measuring tumor diameters with a Vernier caliper (length × width). Tumor weight was calculated according to the formula tumor weight (mg) = tumor volume (mm^3) = d2 × D/2, where d and D are the shortest and longest diameters, respectively. The effects of the treatments were assessed as previously described. At about 10 days after the tumor injection, 30 mice with tumor volumes of 0.5–0.8 cm^3 were randomly divided into 6 groups (5 mice per group with 2 tumors each): (1) control (vehicle); (2) vosaroxin (10 mg/kg every 5 days for 5 weeks intravenous [IV] injection into tail vein; (3) radiotherapy (RT; 4 Gy delivered in a single fraction); (4) vosaroxin in combination with RT; (5) temozolomide (16 mg/kg 5 consecutive days) and (6) temozolomide in combination with RT. Anesthetized tumor-bearing mice received focal irradiation. Irradiation was delivered using an x-ray linear accelerator at a dose rate of 200 cGy/min at room temperature. All mice were shielded with a specially designed lead apparatus to allow irradiation to the right hind limb. At the end of the study (35 days after the start of treatments), animals were sacrificed by carbon dioxide inhalation and tumors were then removed surgically. Half of the tumor was directly frozen in liquid nitrogen for protein analysis and the other half was fixed in paraformaldehyde overnight for immunohistochemical analyses.
The following parameters were used to quantify the antitumor effects of different treatments as previously described: tumor volume, measured throughout the experiment; tumor weight, measured at the end of the experiment; tumor progression, defined as an increase of greater than 50% of tumor volume with respect to baseline; and time to progression (TTP), defined as the time until tumor progression was observed from baseline. Tumor size was measured with calipers and the TTP of a single tumor was calculated. TTP data were used to generate Kaplan-Meier curves for progression. This method of analysis was described previously, and may reduce both inter-subject variability resulting from differences in engraftment efficacy as well as intra-subject variability in response.
In vivo drug combination studies were evaluated using CalcuSyn. For CI calculations of dual administration, the values of % cell kill (%CK) for a fixed tumor volume were determined by the log CK (LCK). LCK was calculated as LCK = (T − C) / (3.32 × Td), where Td represented the mean control group doubling time required to reach a fixed tumor volume, expressed in days. T and C were the mean times in days required to reach the same fixed tumor volume in the treated group and the control group, respectively. CK was calculated as %CK = [1 − (1 − 10LCK)] × 100. Tumor growth delay (TGD) was calculated as %TGD = [(T − C) / C] × 100, where T and C were the same values as those reported by Bruzzese et al..

CN[C@H]1CN(c2ccc3c(=O)c(C(=O)O)cn(-c4nccs4)c3n2)C[C@@H]1OC [vosaroxin]
RT-induced AVO staining [1]: reduced | caspase-3 activity (caspase-3): increased | IC50 (U373 glioma cell line): 0.0784 ± 0.0097 µM | IC50 (U138 glioma cell line): 0.0658 ± 0.0146 µM | IC50 (LN229 glioma cell line): 0.0128 ± 0.0023 µM | IC50 (D54 glioma cell line): 0.19 ± 0.0254 µM | IC50 (LN18 glioma cell line): 0.09 ± 0.0125 µM | IC50 (SNB19 glioma cell line): 0.0355 ± 0.007 µM | IC50 (SF268 glioma cell line): 0.0503 ± 0.012 µM | IC20 (U87MG glioma cell line): 0.065 µM | IC50 (U87MG glioma cell line): 0.141 ± 0.0847 µM | IC20 (T98G glioma cell line): 0.045 µM | IC50 (T98G glioma cell line): 0.0645 ± 0.011 µM | IC20 (U251 glioma cell line): 0.015 µM | IC50 (U251 glioma cell line): 0.0186 ± 0.0024 µM | IC50 (A172 glioma cell line): 0.125 ± 0.0894 µM | IC50 (U118 glioma cell line): 0.0885 ± 0.0167 µM | IC50 (SW1783 glioma cell line): 0.261 ± 0.0098 µM | final tumor weight reduction compared with vehicle controls (T98G xenografts; T98G xenografts, day 35, VSR 10 mg/kg q 5 d for 5 wk IV, TMZ 16 mg/kg 5 consecutive days, RT single 4 Gy): 60% | HR (95% CI) for tumor progression (T98G xenografts; VSR vs TMZ + RT): 1.0 (0.4–2.4) | HR (95% CI) for tumor progression (T98G xenografts; VSR vs TMZ): 0.5 (0.2–1.3) | HR (95% CI) for tumor progression (T98G xenografts; VSR vs VSR + RT): 4.7 (1.5–14.6)
